The values below come from PMC12384620, “Hit-to-Lead Studies of Pyrazinylpiperazines against Visceral Leishmaniasis: Pharmacokinetic Profile and In Vivo Efficacy of Potent Compounds against Leishmania infantum” (ACS Pharmacology & Translational Science, 2025).

In brackets after ≈: the same amount, converted by molar mass. Where only a bound is given, the exact number is not on record here.

The subject of one data set is THP-1 cells. Set-up: method as in SAR previously reported. The conditions noted are these: ref SAR previously reported; cited from earlier work.
For data set [1], the system named is glycogen synthase kinase-3 (GSK-3). Also noted: method as in earlier work. The note with it: ref previous screening of potential GSK-3 inhibitors among the Leishbox; cited from earlier work.
Data set [2] can be described thus: Experimental lipophilicity elog(D) at pH 7.4 by retention time. The data set is classed as physicochemical. The conditions noted are these: pH 7.4, chromatographic. Here is the method:
The analysis was performed using LC-MS/MS (liquid chromatography-tandem mass spectrometry). The chromatography system used was a Prominence UFLC (Shimadzu Corporation, Kyoto, Japan), interfaced with a LCMS-8045 triple quadrupole mass spectrometer (Shimadzu Corporation, Kyoto, Japan) equipped with an electrospray ionization source (ESI).
For the determination of the distribution coefficient (elog(D)), a methodology based on the retention time of molecules in the stationary phase was used. The chromatogram was achieved on a Supelco Ascentis express RP amide HPLC column (5 cm x 2.1 mm, […]), using 5% methanol in 10 mM ammonium acetate pH 7.4 (A) and 100% methanol (B) as mobile phases. The mobile phase was eluted in binary gradient mode, as follows: 0 min: 95% A; 0.3 min: 100% A; 5.2 min: 0% A; 5.6 min: 0% A; 5.8 min: 100% A; 7.0 min: 100% A. The total run time was 7 min, and 5 μL of each sample were injected. The solutions of tested compounds were prepared at a concentration of 1.0 mg/mL in compound by adding the stock solution to a (1:1) mix of mobile phases A:B (internal standard at 200 nM), and the DMSO concentration was lower than 2%. […]

Another data set can be described thus: Kinetic solubility. Type of data set: physicochemical. The conditions noted are these: PBS, 25 °C, kinetic from dmso stock. The procedure:
The analysis was performed using LC-MS/MS (liquid chromatography-tandem mass spectrometry). The LC-MS/MS system used consisted of a Prominence UFLC (Shimadzu Corporation, Kyoto, Japan) chromatography system, interfaced with a LCMS-8045 triple quadrupole mass spectrometer (Shimadzu Corporation, Kyoto, Japan) equipped with an electrospray ionization source (ESI).
PBS pH 7.4 or 2.0 (final concentration of 250 μM) was added to each well of the plates, and the DMSO concentration was kept lower than 2.5%. The plates were sealed and shaken for 24 h (200 rpm/25 °C). The precipitates on the incubation plate were removed by centrifugation (15 min/3000 rpm/25 °C), and the supernatant fractions were quantified by LC-MS/MS. An intermediate standard solution diluted at 0.5 mM in acetonitrile:water (1:1) was prepared from a 10 mM standard solution. A calibration curve was prepared for each of the test compounds and controls by diluting several times the intermediate standard solution to reach the desired concentrations of 50, 40, 20, 2, and 1 μM. The resulting equation for the calibration curve (y = mx + b) was used to calculate the experimental concentration values for the compounds. The chromatogram for analysis was achieved on a Supelco Ascentis express C18 column (3 cm x 2.1 mm, […]), using water +0.05% formic acid (A) and acetonitrile +0.05% formic acid (B) as mobile phases. […]

Data set [3] deals with L. infantum promastigotes. Nature of the data set: Reactive oxygen species production assay (H2DCFDA). The data set is classed as cell-based, Leishmania infantum. The note with it: at IC50 against promastigotes, 24 h; standard 100 μM H2O2. Here is the method: The fluorescent dye H2DCFDA was employed to evaluate ROS production. […] After treatment, the parasites were harvested, washed three times with 1 × PBS, and incubated with 10 μM H2DCFDA dye in […] of 1 × PBS in the dark at room temperature for 30 min. Subsequently, the cells were centrifugated, resuspended in ice-cold PBS and kept at 0 °C until reading on a SpectraMax Gemini XPS/EM microplate reader. The median fluorescence intensity (MIF) was measured on a population of at least ten thousand cells and the data was further analyzed using Excel 2021.

The subject of the next data set is L. braziliensis DHODH. Nature of the data set: DHODH inhibition assay (DCIP). The data set is classed as biochemical, Leishmania braziliensis. The conditions noted are these: 100 μM. The procedure:
The inhibition assay was conducted under the following conditions: 50 mM Tris (pH 8.15), 150 mM KCl, 50 μM DHO, 60 μM DCIP, and 0.1% Triton X-100. 2 was assayed in triplicate at a concentration of 100 μM, using 5% (v/v) DMSO to prepare stock solutions. The reaction was initiated by adding the enzyme, reaching a final enzyme concentration of 165 nM. Enzymatic activity was then measured for 60 s at 610 nm using a microplate reader (SpectraMax Plus 384, Molecular Devices, San Jose, CA, USA) at 25 °C. The uninhibited reaction, containing 5% (v/v) DMSO, was used as a positive control (100% activity).

The next data set deals with BALB/c mice. Nature of the data set: Acute toxicity / maximum tolerated dose in uninfected mice. The note with it: intraperitoneal, accumulated dose 100 mg/kg, 24 h after last dose. The data set is classed as in vivo, mouse. Here is the method: The maximum tolerated dose (MTD) of 2 was determined in BALB/c mice. One male and one female specimen, uninfected, 6 weeks old (ideal weight: 20 g), were each administered intraperitoneally an emulsified sample prepared with 70% PBS1X, 20% PEG 400 (Polyethylene glycol 400, Sigma-Aldrich), 0.16% Tween 80 and 10% of 2, with an initial dose of 5 mg/kg of 2. After 2 h, an additional dose of 15 mg/kg was administered (resulting in an accumulated dose (AD) of 20 mg/kg). After another 2 h, a new dose of 30 mg/kg was administered (AD = 50 mg/kg). After a further 2 h, a final dose of 50 mg/kg (AD = 100 mg/kg) was administered.

Usually CC50 stands for the concentration giving 50% cytotoxicity. On to `O=C(c1ccc(O)c(Cl)c1)N1CCN(c2cnccn2)CC1` [Compound 1, (3-Chloro-4-hydroxyphenyl)(4-(pyrazin-2-yl)piperazin-1-yl)methanone], for which, in the data set on THP-1 cells, the CC50 was 542 µM. In addition, the GSK-3 inhibition result in data set [1] is recorded as “did not inhibit”.

In general, solubility (kinetic) refers to the concentration staying in solution when a stock, usually in DMSO, is diluted into the medium. Take `O=C(c1ccc(O)cc1)N1CCN(c2cnccn2)CC1` [Compound 2, (4-Hydroxyphenyl)(4-(pyrazin-2-yl)piperazin-1-yl)methanone]: the “elog(D)” value in data set [2] amounted to 1.64. The kinetic solubility at 24 h in “Kinetic solubility” (aqueous buffer, pH 2.0) was 125 µM (≈ 35.6 µg/mL); in the data set “Kinetic solubility” (pH 7.4, aqueous buffer), over 153 µM. Moreover, the ROS production result in data set [3] is reported as “comparable to that of the standard H2O2”. Also, the “inhibition of DHODH” value in the data set with L. braziliensis DHODH is reported as “less than 25%”. Further, the “signs of acute toxicity (MTD determination)” value in the data set on BALB/c mice is on record as “no apparent signs of acute toxicity”.
